Results on 85 compounds are retold here after a melting point compilation (Tetko et al.; mined from patent text by program, amines drawn as free bases though some values may be those of a salt).

Where only a bound is given, the exact number is not on record here.

As for `Cn1c(CCc2ccc(C#N)cc2)nc2cc(NS(=O)(=O)c3ccccc3)ccc21`, the melting point (usually the temperature, or range, at which the solid turns liquid) lay within 222 to 225 °C. `C=CCCC(O)=C(C#N)C(=O)Nc1ccc(C(F)(F)F)c(C)c1` came in with a melting point of 133 °C. For `Cc1ccc(C2OCCn3ccc(=O)c(O)c32)cc1` (stereo not given) the value was 210 to 218 °C; for `CCCc1cc(OC)c(OC)cc1Cc1cnc(N)nc1N`, 166 to 167 °C. On to `CCCCCCCc1cnc(-c2ccc(OCC(F)CCCCCC)c(F)c2F)nc1` (stereo not given), for which the melting point was 56 °C. For the compound `O=C(NCC(C=C1CCCCC1[N+](=O)[O-])=NO)c1cccnc1` (stereo not given), the melting point is 149 to 151 °C. Turning to `CCc1nc2c(N)nc3ccccc3c2s1`, the melting point fell in the range of 170 to 172 °C.

As to `CCOP(=O)(OCC)C(CSC(OC(C)=O)OC(=O)N1CCN(c2cc3c(cc2F)c(=O)c(C(=O)O)cn3CC)CC1)P(=O)(OCC)OCC` (stereo not given), the melting point was in the range of 89 to 90 °C. As for `Cn1cnc2nc(C=Cc3ccc(Cl)cc3)nn2c1=S`, the melting point is above 300 °C. For `O=C(Nc1ccc(C(F)(F)F)cc1)N1N=C2c3ccc(C(F)(F)F)cc3OC3CCCC1C23` (stereo not given) the value was 194 to 195 °C. Compound `CCOC(=O)c1c(C(F)(F)F)nc(C(F)(F)F)c(C)c1OC(C)C` yielded a melting point of 53 to 55 °C.

Compound `C=C(C)C=COCC1CCn2c(nc3ccccc32)S1` (stereo not given) came in with a melting point of 56 to 60 °C. The same measure for `C(=C1CCN(C(c2ccccc2)(c2ccccc2)c2ccccc2)CC1)c1ccc(C2=NCCO2)cc1`: 74 °C; for `Cc1ccc(C2=C(c3ccc(S(C)(=O)=O)cc3)CN(C3CC3)C2=O)cc1`: 214 to 216 °C. For `CCOC(=O)c1cnc2c(cnn2Cc2ccco2)c1O`, the melting point was 103 to 106 °C.

In turn, `CC(=O)N1CCC(OC(=O)c2ccccc2)(c2nccc3ccccc23)CC1` registered a melting point of 186 to 189 °C.

In the case of `COc1ccc2[nH]c(SCc3ncc(F)c(N4CCOCC4)c3C)nc2c1`, the melting point was 84 to 86 °C.

Compound `O=CCC1Cc2cc(F)c(F)cc2C1=O` (racemic) had a melting point of 78 to 81 °C. The same measure for `CCCCc1nc(N)c(C#N)[nH]1`: 115 to 116 °C. For `O=C(CCc1cccc(F)c1F)c1cnc2sc3c(n12)CCCCC3` the value was 108 to 110 °C; for `Cc1nc(-c2noc(Cc3ccccc3)n2)sc1C(=O)NCc1ccccc1`, 124 to 125 °C.

`COc1cc(Nc2nc(O)c3c(n2)C(c2ccccc2)CN(C)C3)ccc1-n1cnc(C)c1` (stereo not given) displayed a melting point of 152 to 155 °C. The same measure for `CCOC(=O)[C@@H](O)[C@@H]1OC(=O)c2ccc(OC)cc21`: 121 to 122 °C; for `N#CN=C(Nc1cccnc1)NC(CC12CC3CC(CC(C3)C1)C2)NC(=O)c1ccc(Cl)cc1` (stereo not given): 202 to 203 °C; for `CCCCc1ccc(CC(N)C(=O)O)cc1` (stereo not given): 218 to 223 °C. For `CCN1C(=O)C(C)(C)CCc2c1ccc(Nc1ncc(Cl)c(Nc3ccccc3C(=O)NC)n1)c2OC` the value was 226 to 228 °C; for `O=C1c2ccccc2-c2c1c1cc3c(cc1c(=O)n2CCCNS(=O)(=O)c1ccccc1)OCO3`, 225 to 226 °C; for `CSCC(=O)C(Cc1ccc2ccccc2c1)NC(=O)C(CC(C)C)NC(=O)OCc1ccccc1` (stereo not given), 101 to 103 °C. The same measure for `Cc1ccc(Sc2c(N)cc(C(=O)O)cc2SCc2ccccc2)cc1`: 177 to 179 °C.

Take `Brc1ccc(O[C@H]2CCNC[C@H]2c2ccccc2)cc1` (relative stereo): the melting point was in the range of 113 to 115 °C. The same measure for `O=S(=O)(c1ccccc1)N1CCCC1c1ccccc1` (racemic): 116 °C; for `N#CCC12CC(c3ccccc31)c1ccccc12`: 130 to 131 °C; for `COC(=O)c1cc(-c2ccc(OC)cc2)nn(CCC#N)c1=O`: 141 to 143 °C. For `O/N=C(/c1ccc(Cl)cc1)C1CC1` the value was 101 to 103 °C; for `CC1Cc2ccc([N+](=O)[O-])cc2C=N1` (stereo not given), 110 to 112 °C; for `O=C1c2cc(Cl)c(Cl)cc2C(=O)c2c1c(Cl)c1cc(Cl)c(Cl)cc1c2Cl`, above 260 °C. As to `O=C1Nc2ccc(Cl)nc2Oc2ccccc21`, the melting point lay in the range of 311 to 313 °C. For `CCCOc1c(C=O)c(=O)n(C)c(=O)n1C` the value was 57 to 58 °C; for `Cc1noc(NS(=O)(=O)c2cccc(-c3ccccc3)c2)c1Br`, 78 to 82 °C.

Consider `O=C1c2cccnc2C(=O)N1Cc1ccccc1`, for which the melting point was 163 to 165 °C. For `Cc1ccccc1C(=O)NC1CCC(=O)N2CCCC(C(=O)NC3CC(=O)OC3OCc3ccccc3)N2C1=O` (stereo not given) the value was 106 to 110 °C; for `CCN(CC)CC#CC(=O)Nc1ccc2ncc(C#N)c(Nc3cccc(Br)c3)c2c1`, 133 to 135 °C; for `CC[C@H](C)[C@H](NC(=O)OC(C)(C)C)C(=O)N[C@H](C(=O)N[C@@H](CC1CCCCC1)[C@@H](O)[C@@H](O)CC(C)C)[C@@H](C)CC`, 178 to 179 °C. `CN1CCCCCC1=NC(=O)Nc1c(Cl)cccc1Cl`: the melting point fell in the range of 143 to 144 °C. For `Cc1ccc(-c2ccc3c(c2)CC[C@H]2N(C)C(=O)CC[C@]32C)cc1` the value was 178 °C; for `Cc1cn(C(C)(C)C(=O)N(C)C)nc1-c1ccccc1C#N`, 124 to 126 °C.

`c1cnc(-c2noc(C3CC3)n2)cn1` registered a melting point of 95 to 98 °C. `Oc1ccc(-c2noc3cc(O)ccc23)c(O)c1` came in with a melting point of 300 to 305 °C.

`O=S(=O)(Nc1cccc(Oc2cccc3cccnc23)c1)c1ccc(Cl)cc1` came in with a melting point of 190 to 191 °C. For `C[C@H](NC(=O)C(CSC(=O)c1ccccc1)SC(=O)c1ccccc1)C(=O)N1CCC[C@H]1C(=O)O` (stereo not given in full) the value was 185 to 186 °C; for `COc1ccc(N2C(=O)Cc3ccccc32)cc1`, 115 to 117 °C; for `CC(C)(C)c1cc(C(=O)Nc2ccccc2NC(=O)NCC(c2ccccc2)c2ccccc2)cc(C(C)(C)C)c1O`, 198 to 200 °C. `Nc1cc(Oc2ccc3c(C(=O)Nc4ccc(F)c(C(F)(F)F)c4)cccc3c2)ncn1` showed a melting point of 224 to 225 °C. The same measure for `CCCC=Cc1c(C(C)C)cc(C(C)C)c(CO)c1-c1ccc(F)cc1`: 85 to 95 °C; for `CCCCc1nn(-c2cc(NC(=O)CC)ccc2C(F)(F)F)c(=O)n1Cc1ccc(-c2ccccc2S(=O)(=O)NC(=O)c2ccccc2Cl)cc1`: 102 to 105 °C. Regarding `CNC(=O)c1ccc2c(c1)CCOC2CCN1CCN(c2ccc(OC)cc2)CC1` (stereo not given), the melting point lay within 174 to 176 °C. The same measure for `O=C(Cn1ccnc1)c1ccc(-c2ccccc2)cc1`: 198 °C; for `CC1(C)OC(c2ccc(S(N)(=O)=O)c(Br)c2)=C(c2ccccc2)C1=O`: 128 to 132 °C; for `Cn1c(CO)nc2c(N)cc(Br)cc21`: 216 to 218 °C.

Turning to `CCCCCCCCCCCCCCOc1ccc(OCc2ccccc2)c(C(=O)N(CC(=O)O)CC(=O)O)c1`, the melting point fell in the range of 71 to 74 °C. For the compound `CCCCCCCCCCCCCCOc1ccc2c(C)c(C(=O)O)oc2c1`, the melting point is 105 to 108 °C. The same measure for `O=C(NC(=O)c1c(F)cccc1F)Nc1ccc(C(F)(F)F)cc1F`: 197 °C; for `CC(=O)OCC(=O)C1(O)CCC2C3CCC4=CC(=O)C=CC4(C)C3C(O[Si](C)(C)C)CC21C` (stereo not given): 180 to 184 °C; for `O=C(O)CCC(=O)N1CCN2C(=O)OC(c3ccccc3)(c3ccccc3)C2C1` (stereo not given): 158 to 164 °C. In turn, `C#Cc1ccc(-c2ccc(-c3ccc(C#C)cc3)n2-c2ccc(C)cc2)cc1` yielded a melting point of 235 to 237 °C. For `NNC(=O)C(Cl)c1cccc(Cl)n1` (stereo not given) the value was 176 to 177 °C; for `CC(C)(C)c1nc(-c2n[nH]c(=O)o2)nc(C(C)(C)C)c1O`, 230 to 232 °C.

On to `Cc1cc(Cc2ccc(NC(=O)NCCO)cc2)n(C)c1C(=O)c1ccc(Cl)cc1`, for which the melting point was found to be 210 °C. As to `COc1ccccc1Oc1c(NS(=O)(=O)c2ccc(C(C)(C)C)cc2)nc(NCCN(C)C)nc1OCCOc1ncc(Br)cn1`, the melting point was 129 to 132 °C. Regarding `O=C1NC(=S)SC1=Cc1ccc(Oc2ccccc2)cc1`, the melting point fell in the range of 195 to 200 °C. For `COc1ccc(-c2cc(-c3nc(C)cs3)c(=O)n(C)c2-c2cnccn2)cc1` the value was 168 to 170 °C; for `Nc1ccc(-c2nnsc2-c2ccc(N)cc2)cc1`, 236 °C; for `COc1ccc(C2=NN(C3CCN(C(=O)c4c(Cl)cc(Cl)cc4Cl)CC3)C(=O)CC2)cc1OC`, 156 to 159 °C. For `O=C(NC(=O)c1c(F)cccc1F)Nc1ccc(OC(c2ccc(Cl)cc2)C2CC2)cc1` (stereo not given) the value was 185 to 188 °C; for `OCCOCC(O)c1ccc(OCc2ccccc2)cc1` (stereo not given), 116 to 117 °C. For `CCCC1Cc2c(c(C)c(C)c3oc(C(=O)O)cc23)C1=O` (stereo not given) the value was 287 °C.

As for `CC(=O)N1CCc2cc(C[C@@H](C)NCCOc3ccccc3OCC(F)(F)F)cc(C(N)=O)c21`, the melting point fell in the range of 144 to 146 °C.

Consider `CC(=O)Nc1ccc(C=CC(=O)C(C)CC(=O)O)cc1` (stereo not given), for which the melting point fell in the range of 189 to 190 °C.

In turn, `O=C(O)CCCCCOc1ccccc1OCc1ccccc1` displayed a melting point of 77 to 78 °C. The same measure for `COc1ccc(CN2C(=O)[C@@H](NC(=O)Cc3ccccc3)[C@H]2COS(=O)(=O)c2ccc(C)cc2)c(OC)c1` (relative stereo): 109 to 110 °C.

Consider `COCCNC(=O)CC1CN=C(c2cc3cc(Oc4ccc(S(C)(=O)=O)nc4)ccc3[nH]2)S1` (stereo not given), for which the melting point lay in the range of 155 to 156 °C. Compound `CCn1c(=O)c2c(nc(/C=C/c3cccc(O)c3)n2C)n(CC)c1=O` had a melting point of 250 to 251 °C.

As to `Nc1ccc(CN2CCNC(=O)C2=O)cc1`, the melting point was 246 to 249 °C.

As for `CC(C)(O)[C@H]1CC[C@H](Cc2cn(-c3ccc(F)cc3)c3ncccc3c2=O)CC1`, the melting point was in the range of 208 to 209 °C. The same measure for `C[C@H](NC(=O)c1cc(Cl)cnc1Oc1ccc(F)cc1)c1ccc(C(=O)O)cc1`: 198 °C.
